For one assay, the system named is SH-SY5Y. The assay is described as follows: Neuroprotective activity against MPP+-induced toxicity in human SH-SY5Y cells assessed as increase in cell viability at 100 nM preincubated for 4 hrs followed by incubation with MPP+ for 20 hrs measured after 24 hrs by MTS assay relative to control. The format is functional. (Tetrazolium assays rely on reduction of a dye to a coloured formazan, in cell work by metabolically active cells.)

For assay [1], the target named is T1, Vasoactive intestinal polypeptide receptor 1 (Homo sapiens, UniProt P32241).
T1 sequence (P32241 whole entry): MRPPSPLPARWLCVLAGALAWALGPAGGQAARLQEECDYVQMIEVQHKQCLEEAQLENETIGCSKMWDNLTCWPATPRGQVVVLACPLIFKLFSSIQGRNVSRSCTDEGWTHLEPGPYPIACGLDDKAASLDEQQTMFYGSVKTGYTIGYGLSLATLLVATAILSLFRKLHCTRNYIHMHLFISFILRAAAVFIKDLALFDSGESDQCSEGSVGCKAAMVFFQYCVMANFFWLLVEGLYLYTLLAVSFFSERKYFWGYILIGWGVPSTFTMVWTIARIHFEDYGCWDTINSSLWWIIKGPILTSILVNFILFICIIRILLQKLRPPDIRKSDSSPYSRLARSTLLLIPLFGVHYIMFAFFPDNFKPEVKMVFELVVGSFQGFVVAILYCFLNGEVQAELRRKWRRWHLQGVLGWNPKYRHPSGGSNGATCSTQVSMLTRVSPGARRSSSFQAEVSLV
The assay is described as follows: Displacement of Ac-[125I]-PACAP27 from recombinant human VPAC1 expressed in CHO cells after 90 mins by gamma counting analysis. The format is cell-based.

Assay [2] deals with T2, Pituitary adenylate cyclase-activating polypeptide type I receptor (Homo sapiens, UniProt P41586). Nature of the assay: Displacement of Ac-[125I]-PACAP27 from recombinant human PAC1 expressed in CHO cells after 90 mins by gamma counting analysis. The format is cell-based.
Target sequence in this assay (P41586 whole entry): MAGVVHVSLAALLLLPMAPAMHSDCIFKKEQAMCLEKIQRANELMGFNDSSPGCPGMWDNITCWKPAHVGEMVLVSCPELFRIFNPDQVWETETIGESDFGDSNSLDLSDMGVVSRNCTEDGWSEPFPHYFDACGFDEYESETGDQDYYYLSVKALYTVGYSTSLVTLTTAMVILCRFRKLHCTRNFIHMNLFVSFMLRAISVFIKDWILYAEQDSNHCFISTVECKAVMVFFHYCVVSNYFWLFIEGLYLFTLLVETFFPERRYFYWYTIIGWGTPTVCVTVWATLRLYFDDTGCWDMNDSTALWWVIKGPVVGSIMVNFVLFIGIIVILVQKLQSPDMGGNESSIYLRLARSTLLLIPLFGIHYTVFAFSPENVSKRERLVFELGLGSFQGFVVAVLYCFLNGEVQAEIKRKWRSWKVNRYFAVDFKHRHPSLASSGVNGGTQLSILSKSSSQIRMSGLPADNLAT
Assay [3] concerns the target T3, Vasoactive intestinal polypeptide receptor 1 (Homo sapiens) (UniProt P32241).
T3 sequence (whole entry): T1 sequence (P32241 whole entry)
The assay is described as follows: Activation of VPAC1 in human SH-SY5Y cells assessed as stimulation of forskolin-induced cAMP production at 10^-7 to 10^-5 M after 30 mins. The format is functional, cell-based. In general terms: Changes in cAMP serve as a functional read-out for many G protein-coupled receptors.

In assay [4] the target is T4, Vasoactive intestinal polypeptide receptor 2 (Homo sapiens, UniProt P41587).
T4 sequence (P41587 whole entry): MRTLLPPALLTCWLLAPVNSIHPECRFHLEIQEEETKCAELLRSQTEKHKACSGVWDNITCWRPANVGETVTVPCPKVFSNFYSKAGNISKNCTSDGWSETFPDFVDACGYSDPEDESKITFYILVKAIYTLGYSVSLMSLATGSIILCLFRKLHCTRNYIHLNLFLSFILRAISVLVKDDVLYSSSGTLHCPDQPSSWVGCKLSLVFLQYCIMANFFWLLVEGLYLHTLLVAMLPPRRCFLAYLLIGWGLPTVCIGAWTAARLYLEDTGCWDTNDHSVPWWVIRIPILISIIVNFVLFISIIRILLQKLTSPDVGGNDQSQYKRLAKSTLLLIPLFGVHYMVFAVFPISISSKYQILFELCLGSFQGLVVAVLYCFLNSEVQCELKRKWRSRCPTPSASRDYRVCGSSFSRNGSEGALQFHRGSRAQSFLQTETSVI
The assay is described as follows: Displacement of Ac-[125I]-PACAP27 from recombinant human VPAC2 expressed in CHO cells after 90 mins by gamma counting analysis. The format is cell-based.

The target in assay [5] is T2, Pituitary adenylate cyclase-activating polypeptide type I receptor. The assay is described as follows: Activation of PAC1 in human SH-SY5Y cells assessed as stimulation of forskolin-induced cAMP production at 10^-7 to 10^-5 M after 30 mins. The format is cell-based.
Target sequence in this assay (P41586 21-468 limits assumed): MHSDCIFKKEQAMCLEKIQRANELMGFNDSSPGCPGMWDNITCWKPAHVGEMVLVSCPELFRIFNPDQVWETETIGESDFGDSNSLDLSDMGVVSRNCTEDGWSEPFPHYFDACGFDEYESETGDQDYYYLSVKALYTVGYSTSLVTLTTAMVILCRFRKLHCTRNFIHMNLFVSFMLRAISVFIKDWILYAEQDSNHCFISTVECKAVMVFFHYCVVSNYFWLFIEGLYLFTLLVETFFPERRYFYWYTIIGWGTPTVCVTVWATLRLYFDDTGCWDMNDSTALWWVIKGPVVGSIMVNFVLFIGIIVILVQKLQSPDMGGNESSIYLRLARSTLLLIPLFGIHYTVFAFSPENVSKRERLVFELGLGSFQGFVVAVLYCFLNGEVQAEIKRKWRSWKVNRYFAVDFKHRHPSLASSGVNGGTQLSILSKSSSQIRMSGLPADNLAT
In assay [6] the target is T5, Vasoactive intestinal polypeptide receptor 2 (Homo sapiens) (UniProt P41587).
T5 sequence (whole entry): T4 sequence (P41587 whole entry)
Nature of the assay: Activation of VPAC2 in human SH-SY5Y cells assessed as stimulation of forskolin-induced cAMP production at 10^-7 to 10^-5 M after 30 mins. The format is functional, cell-based.

Active and inactive are the calls of the source. No cut-off for these calls is given here.

As for `CC[C@H](C)[C@H](NC(=O)CNC(=O)[C@H](CC(=O)O)NC(=O)[C@H](CO)NC(=O)[C@@H](N)Cc1cnc[nH]1)C(=O)N[C@@H](Cc1ccc(C#Cc2ccccc2)cc1)C(=O)N[C@H](C(=O)N[C@@H](CC(=O)O)C(=O)N[C@@H](CO)C(=O)N[C@@H](Cc1ccc(O)cc1)C(=O)N[C@@H](CO)C(=O)N[C@@H](CCCNC(=N)N)C(=O)N[C@@H](Cc1ccc(O)cc1)C(=O)N[C@@H](CCCNC(=N)N)C(=O)N[C@@H](CCCCN)C(=O)N[C@@H](CCC(N)=O)C(=O)N[C@@H](CCSC)C(=O)N[C@@H](C)C(=O)N[C@H](C(=O)N[C@@H](CCCCN)C(=O)N[C@@H](CCCCN)C(=O)N[C@@H](Cc1ccc(O)cc1)C(=O)N[C@@H](CC(C)C)C(=O)N[C@@H](C)C(=O)N[C@@H](C)C(=O)N[C@H](C(=O)N[C@@H](CC(C)C)C(N)=O)C(C)C)C(C)C)[C@@H](C)O`, the Activity in the assay on SH-SY5Y came out at 85%. Also, the IC50 is 0.012 µM in assay [1] (read-out: IC50), 0.053 µM in assay [2] (read-out: IC50), 0.0447 µM in assay [2] (read-out: pIC50 (converted)) and 0.053 µM in assay [4] (read-out: IC50). The outcome in assay [3], in assay [5] and in assay [6] was Active.
Consider `CC[C@H](C)[C@H](NC(=O)CNC(=O)[C@H](CC(=O)O)NC(=O)[C@H](CO)NC(=O)[C@@H](N)Cc1cnc[nH]1)C(=O)N[C@@H](Cc1ccccc1)C(=O)N[C@H](C(=O)N[C@@H](CC(=O)O)C(=O)N[C@@H](CO)C(=O)N[C@@H](Cc1ccc(O)cc1)C(=O)N[C@@H](CO)C(=O)N[C@@H](CCCNC(=N)N)C(=O)N[C@@H](Cc1ccc(O)cc1)C(=O)N[C@@H](CCCNC(=N)N)C(=O)N[C@@H](CCCCN)C(=O)N[C@@H](CCC(N)=O)C(=O)N[C@@H](CCSC)C(=O)N[C@@H](C)C(=O)N[C@H](C(=O)N[C@@H](CCCCN)C(=O)N[C@@H](CCCCN)C(=O)N[C@@H](Cc1ccc(O)cc1)C(=O)N[C@@H](CC(C)C)C(=O)N[C@@H](C)C(=O)N[C@@H](C)C(=O)N[C@H](C(=O)N[C@@H](CC(C)C)C(N)=O)C(C)C)C(C)C)[C@@H](C)O`, for which the Activity with SH-SY5Y was found to be 85%.
Turning to `CC[C@H](C)[C@H](NC(=O)CNC(=O)[C@H](CC(=O)O)NC(=O)[C@H](CO)NC(=O)[C@@H](N)Cc1cnc[nH]1)C(=O)N[C@@H](Cc1ccc(C#Cc2ccc(F)cc2)cc1)C(=O)N[C@H](C(=O)N[C@@H](CC(=O)O)C(=O)N[C@@H](CO)C(=O)N[C@@H](Cc1ccc(O)cc1)C(=O)N[C@@H](CO)C(=O)N[C@@H](CCCNC(=N)N)C(=O)N[C@@H](Cc1ccc(O)cc1)C(=O)N[C@@H](CCCNC(=N)N)C(=O)N[C@@H](CCCCN)C(=O)N[C@@H](CCC(N)=O)C(=O)N[C@@H](CCSC)C(=O)N[C@@H](C)C(=O)N[C@H](C(=O)N[C@@H](CCCCN)C(=O)N[C@@H](CCCCN)C(=O)N[C@@H](Cc1ccc(O)cc1)C(=O)N[C@@H](CC(C)C)C(=O)N[C@@H](C)C(=O)N[C@@H](C)C(=O)N[C@H](C(=O)N[C@@H](CC(C)C)C(N)=O)C(C)C)C(C)C)[C@@H](C)O`, in the assay with SH-SY5Y, the Activity was found to be 85%. The IC50 in assay [1] (read-out: IC50) turned out to be 0.009 µM; in assay [2] (read-out: IC50), 0.057 µM; in assay [4] (read-out: IC50) it was 0.036 µM. In addition, the outcome in assay [3], in assay [5] and in assay [6] was Active.
For `CC[C@H](C)[C@H](NC(=O)CNC(=O)[C@H](CC(=O)O)NC(=O)[C@H](CO)NC(=O)[C@@H](N)Cc1cnc[nH]1)C(=O)N[C@@H](Cc1ccc(-c2ccccc2)cc1)C(=O)N[C@H](C(=O)N[C@@H](CC(=O)O)C(=O)N[C@@H](CO)C(=O)N[C@@H](Cc1ccc(O)cc1)C(=O)N[C@@H](CO)C(=O)N[C@@H](CCCNC(=N)N)C(=O)N[C@@H](Cc1ccc(O)cc1)C(=O)N[C@@H](CCCNC(=N)N)C(=O)N[C@@H](CCCCN)C(=O)N[C@@H](CCC(N)=O)C(=O)N[C@@H](CCSC)C(=O)N[C@@H](C)C(=O)N[C@H](C(=O)N[C@@H](CCCCN)C(=O)N[C@@H](CCCCN)C(=O)N[C@@H](Cc1ccc(O)cc1)C(=O)N[C@@H](CC(C)C)C(=O)N[C@@H](C)C(=O)N[C@@H](C)C(=O)N[C@H](C(=O)N[C@@H](CC(C)C)C(N)=O)C(C)C)C(C)C)[C@@H](C)O`, the IC50 is 0.0141 µM in assay [1] (read-out: pIC50 (converted)) and 0.0229 µM in assay [4] (read-out: pIC50 (converted)).

The values above are taken from ChEMBL document CHEMBL3734733, “Optimization of on-resin palladium-catalyzed Sonogashira cross-coupling reaction for peptides and its use in a structure-activity relationship study of a class B GPCR ligand” (Eur J Med Chem, 2015).
